In patent publication US12410411B2, “Biocatalytic techniques” (HYPHA DISCOVERY LIMITED, priority 2019, dated 2025):

Columns and labels:
[1] = tested on: P450SeuC10; test: Whole-cell biotransformation in E. coli expressing P450SeuC10, ferredoxinSeuF08 and ferredoxin reductaseSCF15A (Example 4B); type: cell-based, Streptomyces eurythermus NRRL 2539; details: for inferred yield of oxidised product (UPLC-MS): product formed from parent substrate dosed at 100 mg/L, E. coli whole cells, 100 μL screening scale; for Overall % conversion to oxidised products: SeuC10, E. coli whole cells, 0.1 mg/ml substrate, 27° C., pH 7.4
Description: Cell pellets were provided as in Example 2. […] Reactions were stopped and analysed as in Example 4.

[2] = tested on: P450SeuC10; test: Oxidase activity/spectrum testing with lyophilised material containing P450SeuC10, ferredoxinSeuF08 and ferredoxin reductaseSCF15A (Example 4A); type: biochemical, Streptomyces eurythermus NRRL 2539; details: for inferred yield of oxidised product (UPLC-MS): product formed from parent substrate dosed at 100 mg/L, lyophilised material, 100 μL screening scale; for Overall % conversion to oxidised products: SeuC10, lyophilised material, 0.1 mg/ml substrate, 27° C., 16-20 hours, pH 8.0, UPLC-MS
Description: Suspended cell pellets were provided as described in Example 2, containing recombinant P450, ferredoxin and ferredoxin reductase in 100 mM potassium phosphate buffer pH 8.0, 5 mM MgCl2, 5 mM TCEP, and 1 mM PMSF in a ratio of 3.0 ml of buffer per 1 g of cells. Lysed cells were produced by high pressure disruption using three cycles of 30 kpsi. Lysed material was centrifuged at 38,000×g for 40 minutes (4° C.) and the supernatant was sterilized by passing through a 0.2 micron filter to provide the cell-free enzyme preparation containing recombinant P450, ferredoxin and ferredoxin reductase.
(§1) Lyophilised material of recombinant P450, ferredoxin and ferredoxin reductase proteins was made as described in Example 3 and reconstituted in high purity water to the original volume. Biocatalysis was performed shaking at 27° C. in the following conditions: 100 mM potassium phosphate pH 8.0, 5 mM MgCl2 (both present in the reconstituted enzyme preparation) and 0.1 mg/ml substrate compound such as carbamazepine, bosentan, diclofenac, meloxicam, tivantinib or ambroxide.
(§2) Concentrations of P450, ferredoxin and ferredoxin reductase were as extracted (Example 3). Reactions were initiated by addition of 10× stock of cofactor mixture (50 mM G6P, 10 mM NADP, 10 UN/ml G6PDH) to provide a final volume of e.g., 10 μL to 90 μL for 100 μL total reaction volumes. After 16-20 hours, reactions were extracted with an equal volume of acetonitrile, centrifuged to remove precipitated proteins and conversion assessed by UPLC-MS analysis.
UPLC data were obtained as follows:
Column: Acquity UPLC BEH Shield RP18 1.7 μm 2.1 mm i.d. 50 mm length
Solvents: H2O, B: Acetonitrile, both with 0.1% Formic acid
Detector: Waters Acquity UPLC PDA (UV-Vis detection) and Waters Acquity UPLC QDA (MS)

[3] = tested on: SriC22; test: Substrate testing with lyophilised material containing SriC22 (Example 5, method of Example 4A); type: biochemical, Streptomyces rimosus NRRL 2234; details: 0.1 mg/ml substrate
Description: as §1, §2
(§3) Other cytochrome P450 enzymes were expressed as described above, and their activities tested against the same substrates as P450SeuC10 using the methods described in Example 4. The other P450s tested were: P450AluC09 from Amycolatopsis lurida NRRL 2430 (SEQ ID NO: 13, see WO 2018/091885); SriC12 from Streptomyces rimosus NRRL 2234 (SEQ ID NO: 14, see WO 2020/109776); SriC20 from Streptomyces rimosus NRRL 2234 (SEQ ID NO: 15, see WO 2020/109776); SriC22 from Streptomyces rimosus NRRL 2234 (SEQ ID NO: 16, see WO 2020/109776); and CYP107L from Streptomyces platensis DSM 40041 (SEQ ID NO: 17, see Worsch et al., Biotechnology and Bioengineering 115: 2156-2166, 2018).

[4] = tested on: SriC20; test: Substrate testing with lyophilised material containing SriC20 (Example 5, method of Example 4A); type: biochemical, Streptomyces rimosus NRRL 2234; details: 0.1 mg/ml substrate
Description: as §1, §2, §3

[5] = tested on: P450AluC09; test: Substrate testing with lyophilised material containing P450AluC09 (Example 5, method of Example 4A); type: biochemical, Amycolatopsis lurida NRRL 2430; details: AluC09, lyophilised material, 0.1 mg/ml substrate
Description: as §1, §2, §3

[6] = tested on: SriC12; test: Substrate testing with lyophilised material containing SriC12 (Example 5, method of Example 4A); type: biochemical, Streptomyces rimosus NRRL 2234; details: 0.1 mg/ml substrate
Description: as §1, §2, §3

[7] = tested on: P450AluC09; test: Substrate testing with whole cells containing P450AluC09 (Example 5, method of Example 4B); type: cell-based, Amycolatopsis lurida NRRL 2430; details: AluC09, whole cells, 0.1 mg/ml substrate
Description: Cell pellets were provided as in Example 2. The cell pellets were defrosted, washed with 0.85% NaCl buffer and centrifuged at 4,000 RCF, 30 minutes at 4° C. The supernatant was discarded and the pellet was flash frozen in liquid nitrogen. The pellet was allowed to defrost again and resuspended in 40 mL of buffer containing 50 mM potassium phosphate, pH 7.4, 5 mM MgCl2 and 100 mM glucose. Biocatalysis was performed shaking at 27° C. with 0.1 mg/ml substrate compound such as carbamazepine, bosentan, diclofenac, meloxicam, tivantinib, ambroxide or others as shown in Table 2. Reactions were stopped and analysed as in Example 4.
as §3

| Structure (SMILES) | Overall % conversion to oxidised products [2] [%] | Overall % conversion to oxidised products [3] [%] | Overall % conversion to oxidised products [4] [%] | Overall % conversion to oxidised products [5] [%] | Overall % conversion to oxidised products [6] [%] | Overall % conversion to oxidised products [7] [%] | Overall % conversion to oxidised products [1] [%] | also measured |
| --- | --- | --- | --- | --- | --- | --- | --- | --- |
| O=C(O)Cc1ccccc1Nc1c(Cl)cc(O)cc1Cl [4′-hydroxydiclofenac] | – | – | – | – | – | – | – | inferred yield of oxidised product (UPLC-MS) [1]: 73.4% |
| O=C(O)Cc1cc(O)ccc1Nc1c(Cl)cccc1Cl [5-hydroxydiclofenac] | – | – | – | – | – | – | – | inferred yield of oxidised product (UPLC-MS) [1]: 19.4% |
| CN1C(C(=O)Nc2ncc(C(=O)O)s2)=C(O)c2ccccc2S1(=O)=O [5′-carboxylmeloxicam] | – | – | – | – | – | – | – | inferred yield of oxidised product (UPLC-MS) [2]: 5.3% |
| CN1C(C(=O)Nc2ncc(CO)s2)=C(O)c2ccccc2S1(=O)=O [5′-hydroxymethylmeloxicam] | – | – | – | – | – | – | – | inferred yield of oxidised product (UPLC-MS) [2]: 28.4% |
| CC1(C)CCC[C@]2(C)[C@H]3CCO[C@]3(C)CC[C@@H]12 [Ambroxide] | 72.8 | 0 | 0 | 0 | 0 | – | – | – |
| Cc1ccc(-n2nc(C(C)(C)C)cc2NC(=O)Nc2ccc(OCCN3CCOCC3)c3ccccc23)cc1 [BIRB796] | – | – | – | – | – | 5.2 | 19.3 | – |
| COc1ccccc1Oc1c(NS(=O)(=O)c2ccc(C(C)(C)C)cc2)nc(-c2ncccn2)nc1OCCO [Bosentan] | – | – | – | – | – | 100 | 87.1 | – |
| CC(C)(C)[C@H]1CC[C@H](CC2=C(O)C(=O)c3ccccc3C2=O)CC1 [Buparvaquone] | – | – | – | – | – | 48.8 | 23.4 | – |
| NC(=O)N1c2ccccc2C=Cc2ccccc21 [Carbamazepine] | 49.2 | 0 | 0 | 0 | 3.2 | – | – | – |
| O=C(O)Cc1ccccc1Nc1c(Cl)cccc1Cl [Diclofenac] | 98.3 | 0.9 | 0 | 89.9 | 33.9 | – | – | – |
| C/C(=C\c1csc(C)n1)[C@@H]1C[C@@H]2O[C@]2(C)CCC[C@H](C)[C@H](O)[C@@H](C)C(=O)C(C)(C)[C@@H](O)CC(=O)O1 [Epothilone B] | 35.1 | 0 | 0 | 46 | 2 | – | – | – |
| CC(C)(C)c1ccc(S(=O)(=O)Nc2nc(-c3ncccn3)nc(OCCO)c2Oc2ccccc2O)cc1 [O-desmethylbosentan] | – | – | – | – | – | – | – | inferred yield of oxidised product (UPLC-MS) [1]: 3.4% |
| CCCCCCCCCCCCCCCC(=O)O [Palmitic acid] | 70.2 | 0 | 0 | 28.5 | 35.5 | – | – | – |
| CCC[C@H](N[C@@H](C)C(=O)N1[C@H](C(=O)O)C[C@@H]2CCCC[C@@H]21)C(=O)OCC [Perindopril] | – | – | – | – | – | 0 | 14.4 | – |
| CC(C)c1nc(CN(C)C(=O)N[C@H](C(=O)N[C@@H](Cc2ccccc2)C[C@H](O)[C@H](Cc2ccccc2)NC(=O)OCc2cncs2)C(C)C)cs1 [Ritonavir] | – | – | – | – | – | 86.3 | 21.6 | – |
| N#CC[C@H](C1CCCC1)n1cc(-c2ncnc3[nH]ccc23)cn1 [Ruxolitinib] | – | – | – | – | – | 34.3 | 38.6 | – |
| CCCCNC(=O)NS(=O)(=O)c1ccc(C)cc1 [Tolbutamide] | 21 | 0 | 0 | 0 | 34 | – | – | – |
| Fc1ccc(C(OCCN2CCN(CCCc3ccccc3)CC2)c2ccc(F)cc2)cc1 [Vanoxerine] | – | – | – | – | – | 0 | 26.5 | – |
| NC(=O)N1c2ccccc2C2OC2c2ccccc21 (stereo not drawn) [carbamazepine-10,11-epoxide] | – | – | – | – | – | – | – | inferred yield of oxidised product (UPLC-MS) [2]: 49% |
| COc1ccccc1Oc1c(NS(=O)(=O)c2ccc(C(C)(C)CO)cc2)nc(-c2ncccn2)nc1OCCO [hydroxy-bosentan] | – | – | – | – | – | – | – | inferred yield of oxidised product (UPLC-MS) [1]: 81% |
